PubChem BioAssay (NCI)
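Growth conditions: 96-well plates. Treatment: test compound, 48 hours, 5 concentrations. Analysis: linear interpolation between bracketing concentrations; unreached endpoints set to highest concentration. At the TGI there is no net growth.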

What was measured:
Experiment in all cases: inhibition of tumour cell growth, NCI panel, 48 h
MDA-MB-231 breast = test system: MDA-MB-231 breast
MALME-3M melanoma = test system: MALME-3M melanoma
KM12 colon = test system: KM12 colon
OVCAR-3 ovarian = test system: OVCAR-3 ovarian
SF-539 CNS = test system: SF-539 CNS
HOP-92 NSCLC = test system: HOP-92 NSCLC
CAKI-1 renal = test system: CAKI-1 renal
EKVX NSCLC = test system: EKVX NSCLC
NCI-H522 lung = test system: NCI-H522 lung
UACC-257 melanoma = test system: UACC-257 melanoma
SF-295 CNS = test system: SF-295 CNS
MOLT-4 leukemia = test system: MOLT-4 leukemia
RPMI-8226 leukemia = test system: RPMI-8226 leukemia
HCC-2998 colon = test system: HCC-2998 colon
UO-31 renal = test system: UO-31 renal
SR leukemia = test system: SR leukemia
SK-MEL-5 melanoma = test system: SK-MEL-5 melanoma
PC-3 prostate = test system: PC-3 prostate
DU-145 prostate = test system: DU-145 prostate
786-0 renal = test system: 786-0 renal
NCI-H460 lung = test system: NCI-H460 lung
ACHN renal = test system: ACHN renal
SN12C renal = test system: SN12C renal
RXF 393 renal = test system: RXF 393 renal
SK-MEL-2 melanoma = test system: SK-MEL-2 melanoma
OVCAR-8 ovarian = test system: OVCAR-8 ovarian
A498 renal = test system: A498 renal
OVCAR-5 ovarian = test system: OVCAR-5 ovarian
UACC-62 melanoma = test system: UACC-62 melanoma
U251 CNS = test system: U251 CNS
IGROV1 ovarian = test system: IGROV1 ovarian
A549 NSCLC = test system: A549 NSCLC
MCF7 breast = test system: MCF7 breast
HL-60(TB) leukemia = test system: HL-60(TB) leukemia
MDA-MB-435 = test system: MDA-MB-435
SK-OV-3 ovarian = test system: SK-OV-3 ovarian
NCI-H226 lung = test system: NCI-H226 lung
TK-10 renal = test system: TK-10 renal
LOX IMVI melanoma = test system: LOX IMVI melanoma
NCI-H23 lung = test system: NCI-H23 lung
OVCAR-4 ovarian = test system: OVCAR-4 ovarian
NCI/ADR-RES ovarian = test system: NCI/ADR-RES ovarian
SNB-75 CNS = test system: SNB-75 CNS
M14 melanoma = test system: M14 melanoma
K-562 leukemia = test system: K-562 leukemia
MDA-N = test system: MDA-N
CCRF-CEM leukemia = test system: CCRF-CEM leukemia
SW-620 colon = test system: SW-620 colon
HCT-15 colon = test system: HCT-15 colon
HCT-116 colon = test system: HCT-116 colon
COLO 205 colon = test system: COLO 205 colon
SK-MEL-28 melanoma = test system: SK-MEL-28 melanoma
HT29 colon = test system: HT29 colon
HOP-62 NSCLC = test system: HOP-62 NSCLC
HS 578T breast = test system: HS 578T breast
SF-268 CNS = test system: SF-268 CNS
BT-549 breast = test system: BT-549 breast
SNB-19 CNS = test system: SNB-19 CNS

Measured: TGI

O=CC1=C(C(=O)OC(c2ccccc2)c2ccccc2)N2C(=O)[C@@H](NC(=O)Cc3cccs3)[C@H]2SC1
not listed: SK-MEL-28 melanoma | HT29 colon | HOP-62 NSCLC | HS 578T breast | SF-268 CNS | BT-549 breast | SNB-19 CNS
> 100 µM: all other assays above

CC(=O)OCCOCn1c2c(c(=O)[nH]c1=O)CCC2
not listed: NCI-H460 lung | A498 renal | UACC-62 melanoma | SK-OV-3 ovarian | NCI/ADR-RES ovarian
> 100 µM: all other assays above
